Data set [1] deals with T1, Hepatocyte ASGPR receptor (Homo sapiens, UniProt P07306).
T1 construct: endogenous in cells
T1 sequence (P07306 1-291): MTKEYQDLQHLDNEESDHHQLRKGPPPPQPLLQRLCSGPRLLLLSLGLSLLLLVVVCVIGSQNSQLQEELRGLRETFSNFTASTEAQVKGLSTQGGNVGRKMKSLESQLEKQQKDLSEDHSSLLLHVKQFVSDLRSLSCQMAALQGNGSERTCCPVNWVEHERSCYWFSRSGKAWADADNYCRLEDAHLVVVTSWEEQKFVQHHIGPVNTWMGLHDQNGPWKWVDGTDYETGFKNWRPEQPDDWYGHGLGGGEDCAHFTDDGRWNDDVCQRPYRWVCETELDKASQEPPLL
T1 sequence (P07307 1-311 partner): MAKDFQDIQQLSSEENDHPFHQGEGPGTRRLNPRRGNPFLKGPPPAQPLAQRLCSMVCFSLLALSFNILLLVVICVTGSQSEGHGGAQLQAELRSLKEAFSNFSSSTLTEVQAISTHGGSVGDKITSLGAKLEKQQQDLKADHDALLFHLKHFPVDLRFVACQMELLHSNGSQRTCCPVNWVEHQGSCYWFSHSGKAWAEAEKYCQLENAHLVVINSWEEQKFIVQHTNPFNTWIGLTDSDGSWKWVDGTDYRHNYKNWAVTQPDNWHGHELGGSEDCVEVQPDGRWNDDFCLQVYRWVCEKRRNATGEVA
In words: Binding affinity test with hepatocyte ASGPR receptor (Cy5 flow cytometry, binding saturation curve). Here is the method: Embodiment 1: Binding Affinity Test with Hepatocyte ASGPR Receptor
The compound G1, G4, G5 obtained from the examples 1, 4, 5, bound to the above mentioned siRNA respectively to form conjugates which were shown in Table 1.
G1-12, G4-12, G5-12 (1 uM) were diluted respectively in a gradient according to the following Table 2.
The cell concentration was diluted by DMEM culture medium with 2% FBS to 4*10^5 cells/mL.
200 μL cells of each sample and 200 μL siRNA were mixed uniformly, 200 μL cells of the blank control group and 200 μL culture medium were mixed uniformly, and were added in 3 wells of 96-well plate with U-shaped bottom, 100 μL each well. Samples of each concentration of all siRNA were placed in the ice box after sampling, and were placed in decolorization shaker and incubated in dark for 2 hours.
50 g of 96-well plate with U-shaped bottom was centrifuged for 2 minutes at 4° C. 80 μL supernatant was aspirated and discarded by pipette, 10 μg/mL propidium iodide was prepared by using of PBS with 2% FBS, 100 μL PI reagent was added in each well and was stained for 15 minutes. After staining, 50 g of 96-well plate with U-shaped bottom was centrifuged for 2 minutes at 4° C. After washed by PBS with 2% FBS for twice, 100 μL PBS with 2% FBS was added for resuspension, flow cytometer was used to test and count the average Cy5 fluorescence intensity of live cell population.
(A flow cytometer gives signals particle by particle.)

The nature of data set [2]: In vivo hepatic targeting of GalNac-siRNA (siRNA concentration of hepatic tissue by qPCR). Details: species or system Balb/c-nu mice. Particulars: 100 mg/kg, tail vein injection once, livers 6 hours after administration; compared with negative control siRNA not linked to GalNAc. Here is the method:
Balb/c-nu mice, male, body weight ranged 18-22 g, were randomly divided into 3 groups, 5 mice/group, which respectively were blank control group, negative control group and targeting group, the administration dose was 100 mg/kg. The negative control group was administered by tail vein injection of negative control test substance (NC, Ribobio, siM200922112438) once, the targeting group was administered by tail vein injection of the obtained G1-12 test substance of example 6 once, the blank control group was administered an equal volume of saline. All animals' livers were immediately placed in liquid nitrogen after 6 hours of administration, then were saved at −80° C., the siRNA pharmaceutical concentration of hepatic tissue was tested by qPCR method. • 1. Drawing the standard curve. […] The average Ct values of each standard points were calculated based on the obtained Ct values, the log value of standard point concentration was abscissa, the obtained average Ct value was ordinate, the standard curve was drawn, the regression equation and R^2 were calculated, R^2>0.99. • 2. […] The mice liver samples were ground to powder by liquid nitrogen grinding method, and the weight of powder was measured. […] The sample Ct values were substituted into the regression equation of the standard curve, the siRNA content of samples was calculated.

As a reminder, the Kd is the constant that tells how readily two partners part at equilibrium. In data set [1] (average Cy5 fluorescence intensity of live cells minus blank, one site binding (hyperbola) fit, 0.9-100 nM, 2 hours on ice), “G1-12: G1 bound to 5' end of SEQ ID NO: 1, paired with 5'-Cy5 SEQ ID NO: 2; structure Z1 (sense GUAUGUUGCCCGUUUGUCC; antisense GGACAAACGGGCAACAUACCU; G1 ligand 5'; Cy5 label; modified_base join(1,5,8,12,16) OTHER; deoxyribonucleotide modification; modified_base 3 OTHER; thiophosphorylated skeleton modification and deoxyribonucleotide modification; modified_base join(4,6,7,9,10,11,13,14,15,17) OTHER; 2'-fluoro modification; modified_base join(2,18,19) OTHER; thiophosphorylated skeleton modification and 2'-fluoro modification; modified_base join(1,5,7,9,11,13,15,17) OTHER; 2'-O-methyl modification; modified_base join(3,19,20,21) OTHER; thiophosphorylated skeleton modification and 2'-O-methyl modification; modified_base join(2,4) OTHER; …) [Compound G1-12]” came in with a Bmax of 153854. In data set [1] (one site binding (hyperbola) fit of Cy5 fluorescence, 0.9-100 nM, 2 hours on ice, read-out: Kd (dissociation equilibrium constant)), the Kd is 1.98 nM. The “binding affinity with ASGPR receptor” value in data set [1] (statement in words from Table 3) is recorded as “reach a higher level”. The “distribution in mice liver (siRNA content of hepatic tissue)” value in data set [2] is given as “obviously increased”.

(Values after US20260167621A1, “Three Cluster Galactose Type Compound, Conjugate, Making Method and Use Thereof” (GUANGZHOU RIBOBIO CO., LTD., priority 2023, published 2026).)
